Experimental data taken from US20100015164A1, “Compositions and Methods for Modulating Osteoblast Cell Differentiation and Bone Generation Through HIF-1a” (THE UAB RESEARCH FOUNDATION, priority 2005, published 2010).
Entries after “also recorded” stand apart in the source; their conditions may differ.

Legend:
HIF-1α [1] = experiment: Western blotting of nuclear protein for HIF-1α in primary osteoblasts exposed to cobalt; assay type: cell-based, mouse; conditions: primary osteoblast cultures; 5, 10, or 50 ng/ml cobalt; 0, 3, 6, 12, and 24 hours of exposure
Description: The class of PHDs acting on HIF-1α require oxygen, iron, and 2-oxyglutarate as co-factors. Small molecules that block these enzymes are iron chelators, such as cobalt and desferrioxamine, or 2-oxyglutarate analogs such as L-mimosinc and 3,4 DHB, and DMOG. A schematic of the PHD enzyme and the structures of the 2-oxyglutarate analogs is reproduced in FIG. 5. A number of previous studies have shown an increase of VEGF and other HIF-1α target genes in cells treated with the small molecule PHD inhibitors selected here. Because the effects of the PHD inhibiting agents have not been tested in primary osteoblasts, studies were performed to evaluate their ability to increase HIF-1α. Osteoblasts were grown to near confluence, and then exposed to varying concentrations of cobalt chloride. At time zero, and after 3, 6, 12, and 24 hours of exposure, the cells were harvested and nuclear protein was extracted.

VEGF = VEGF mRNA expression by real time PCR in osteoblasts exposed to cobalt chloride; assay type: cell-based, mouse; conditions: 5, 10, or 50 ng/mL cobalt chloride, 3, 12, or 24 hours
Procedure: The osteoblasts were exposed to 5, 10, or 50 ng/mL of cobalt chloride. After, 3, 12, or 24 hours, cells were harvested and mRNA was collected. Real time PCR was performed with β-actin as control. […] Additionally, they lend support to the approach of using VEGF upregulation as assessed by real time PCR as a surrogate for HIF-1α activation in initial screening rather than the more time consuming approach of western blotting for HIF-1α.

HIF-1α [2] = conditions: in vitro and in vivo, published studies; cited from earlier work

| SMILES | nuclear HIF-1α (Western blot of nuclear extracts) (HIF-1α [1]) | VEGF mRNA expression (real time PCR, β-actin as control) (VEGF) | VEGF mRNA expression (real time PCR, β-actin as control) (VEGF; listed as cobalt) | HIF-1α activation (HIF-1α [2]) |
| --- | --- | --- | --- | --- |
| [Cl][Co][Cl] [cobalt chloride] | time and dose dependent increase in nuclear HIF-1α; also recorded: increased nuclear accumulation after cobalt treatment at all doses | Marked upregulation of VEGF expression | Marked upregulation of VEGF was seen after 12 and 24 hours | increase HIF-1α activation in vitro and in vivo |
| CC(=O)N(O)CCCCCNC(=O)CCC(=O)N(O)CCCCCNC(=O)CCC(=O)N(O)CCCCCN [desferrioxamine] | – | – | – | increase HIF-1α activation in vitro and in vivo |
